From US12077503B2, “Substituted cyclic amides and their use as herbicides” (FMC CORPORATION, priority 2015, dated 2024)

Columns and labels:
Assay type in all cases: in vivo
corn (Zea mays) = test: Test A postemergence; settings: Zea mays, post-emergence, 240 h
Method in brief: (§1)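 Seeds sprayed preemergence with a directed soil spray, or plants at 2 to 10 cm height and one- to two-leaf stage sprayed postemergence, with test chemicals in a non-phytotoxic solvent mixture containing surfactant, in loam soil–sand blend. Injury rated visually against untreated controls after about 10 d in greenhouse, 0 (no effect) to 100 (complete control).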

Kochia (Kochia scoparia) [1] = test: Test A postemergence; settings: Bassia scoparia, post-emergence, 240 h
Method in brief: as §1

[2] = test system: giant foxtail (Setaria faberii); test: Test A postemergence; settings: Setaria faberi, post-emergence, 240 h
Method in brief: as §1

[3] = test system: blackgrass (Alopecurus myosuroides); test: Test A postemergence; settings: Alopecurus myosuroides, post-emergence, 240 h
Method in brief: as §1

[4] = test system: barnyardgrass (Echinochloa crus-galli); test: Test A postemergence; settings: Echinochloa crus-galli, post-emergence, 240 h
Method in brief: as §1

[5] = test system: pigweed (Amaranthus retroflexus); test: Test A postemergence; settings: Amaranthus retroflexus, post-emergence, 240 h
Method in brief: as §1

[6] = test system: ragweed (common ragweed, Ambrosia elatior); test: Test A postemergence; settings: Ambrosia artemisiifolia, post-emergence, 240 h
Method in brief: as §1

[7] = test system: Galium (catchweed bedstraw, Galium aparine); test: Test A postemergence; settings: Galium, post-emergence, 240 h
Method in brief: as §1

[8] = test system: ryegrass, Italian (Italian ryegrass, Lolium multiflorum); test: Test A postemergence; settings: Lolium multiflorum, post-emergence, 240 h
Method in brief: as §1

[9] = test system: wheat (Triticum aestivum); test: Test A postemergence; settings: Triticum aestivum, post-emergence, 240 h
Method in brief: as §1

Kochia (Kochia scoparia) [10] = test: Test A preemergence; settings: Bassia scoparia, pre-emergence, 240 h, 0 to 100 scale where 0 is no effect and 100 is complete control, read-out: Kochia plant response rating
Method in brief: as §1

[11] = test system: giant foxtail (Setaria faberii); test: Test A preemergence; settings: Setaria faberi, pre-emergence, 240 h, 0 to 100 scale where 0 is no effect and 100 is complete control, read-out: Foxtail, Giant plant response rating
Method in brief: as §1

[12] = test system: barnyardgrass (Echinochloa crus-galli); test: Test A preemergence; settings: Echinochloa crus-galli, pre-emergence, 240 h, 0 to 100 scale where 0 is no effect and 100 is complete control, read-out: Barnyardgrass plant response rating
Method in brief: as §1

[13] = test system: pigweed (Amaranthus retroflexus); test: Test A preemergence; settings: Amaranthus retroflexus, pre-emergence, 240 h, 0 to 100 scale where 0 is no effect and 100 is complete control, read-out: Pigweed plant response rating
[14] = test system: ragweed (common ragweed, Ambrosia elatior); test: Test A preemergence; settings: Ambrosia artemisiifolia, pre-emergence, 240 h, 0 to 100 scale where 0 is no effect and 100 is complete control, read-out: Ragweed plant response rating
Method in brief: as §1

[15] = test system: ryegrass, Italian (Italian ryegrass, Lolium multiflorum); test: Test A preemergence; settings: Lolium multiflorum, pre-emergence, 240 h, 0 to 100 scale where 0 is no effect and 100 is complete control, read-out: Ryegrass, Italian plant response rating
Method in brief: as §1

rice (Oryra sativa) = test: Test B flooded paddy test; settings: Oryza sativa, 250 g ai/ha, Flood; 0 to 100 scale where 0 is no effect and 100 is complete control; read-out: Rice plant response rating
Method in brief: (§2)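 Greenhouse paddy pots with 2-leaf stage plants received compound by direct addition to floodwater 3 cm deep, kept at that level. Scored visually at 13–15 d versus controls (0 no effect; 100 complete control).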

[16] = test system: barnyardgrass (Echinochloa crus-galli); test: Test B flooded paddy test; settings: Echinochloa crus-galli, 250 g ai/ha, Flood; 0 to 100 scale where 0 is no effect and 100 is complete control; read-out: Barnyardgrass plant response rating
Method in brief: as §2

[17] = test system: sedge, umbrella (small-flower umbrella sedge, Cyperus difformis); test: Test B flooded paddy test; settings: Cyperus difformis, 250 g ai/ha, Flood; 0 to 100 scale where 0 is no effect and 100 is complete control; read-out: Sedge, Umbrella plant response rating
Method in brief: as §2

[18] = test system: ducksalad (Heteranthera limosa); test: Test B flooded paddy test; settings: Heteranthera limosa, 250 g ai/ha, Flood; 0 to 100 scale where 0 is no effect and 100 is complete control; read-out: Ducksalad plant response rating
Method in brief: as §2

[19] = 125 g ai/ha, preemergence, approx. 10 d

O=C1NC[C@H](c2csc3c2CCCC3)[C@H]1C(=O)Nc1cccc(F)c1F [Compound 1163]
30%: pest or weed control at 31 g/ha ([4]; Postemergence, 31 g ai/ha, visual injury after approx. 10 d, 0 to 100 scale, 0 no effect, 100 complete control, read-out: Plant response rating, Barnyardgrass) | pest or weed control at 250 g/ha [16]
10%: pest or weed control at 31 g/ha ([11]; 31 g ai/ha, Preemergence)
20%: pest or weed control at 125 g/ha ([3]; 125 g ai/ha, postemergence, visual injury vs untreated controls after approx. 10 d, 0 = no effect, 100 = complete control, read-out: Blackgrass plant response rating (0 to 100 scale)) | pest or weed control at 125 g/ha ([7]; 125 g ai/ha, postemergence, visual injury vs untreated controls after approx. 10 d, 0 = no effect, 100 = complete control, read-out: Galium plant response rating (0 to 100 scale)) | pest or weed control at 125 g/ha (Kochia (Kochia scoparia) [10]; [19])
60%: pest or weed control at 125 g/ha ([4]; 125 g ai/ha, postemergence, visual injury vs untreated controls after approx. 10 d, 0 = no effect, 100 = complete control, read-out: Barnyardgrass plant response rating (0 to 100 scale)) | pest or weed control at 125 g/ha [11, 19]
95%: pest or weed control at 250 g/ha [18]
0%: plant injury at 125 g/ha (corn (Zea mays); 125 g ai/ha, postemergence, visual injury vs untreated controls after approx. 10 d, 0 = no effect, 100 = complete control, read-out: Corn plant response rating (0 to 100 scale)) | Corn plant response rating (crop injury, 0 = no effect, 100 = complete kill) at 31 g/ha (corn (Zea mays); Postemergence, 31 g ai/ha, visual injury after approx. 10 d, 0 to 100 scale, 0 no effect, 100 complete control) | pest or weed control at 125 g/ha (Kochia (Kochia scoparia) [1]; 125 g ai/ha, postemergence, visual injury vs untreated controls after approx. 10 d, 0 = no effect, 100 = complete control, read-out: Kochia plant response rating (0 to 100 scale)) | pest or weed control at 31 g/ha (Kochia (Kochia scoparia) [1]; Postemergence, 31 g ai/ha, visual injury after approx. 10 d, 0 to 100 scale, 0 no effect, 100 complete control, read-out: Plant response rating, Kochia) | pest or weed control at 125 g/ha ([2]; 125 g ai/ha, postemergence, visual injury vs untreated controls after approx. 10 d, 0 = no effect, 100 = complete control, read-out: Foxtail, Giant plant response rating (0 to 100 scale)) | pest or weed control at 31 g/ha ([2]; Postemergence, 31 g ai/ha, visual injury after approx. 10 d, 0 to 100 scale, 0 no effect, 100 complete control, read-out: Plant response rating, Foxtail, Giant) | pest or weed control at 31 g/ha ([3]; Postemergence, 31 g ai/ha, visual injury after approx. 10 d, 0 to 100 scale, 0 no effect, 100 complete control, read-out: Plant response rating, Blackgrass) | pest or weed control at 125 g/ha ([5]; 125 g ai/ha, postemergence, visual injury vs untreated controls after approx. 10 d, 0 = no effect, 100 = complete control, read-out: Pigweed plant response rating (0 to 100 scale)) | pest or weed control at 31 g/ha ([5]; Postemergence, 31 g ai/ha, visual injury after approx. 10 d, 0 to 100 scale, 0 no effect, 100 complete control, read-out: Plant response rating, Pigweed) | pest or weed control at 125 g/ha ([6]; 125 g ai/ha, postemergence, visual injury vs untreated controls after approx. 10 d, 0 = no effect, 100 = complete control, read-out: Ragweed plant response rating (0 to 100 scale)) | pest or weed control at 31 g/ha ([6]; Postemergence, 31 g ai/ha, visual injury after approx. 10 d, 0 to 100 scale, 0 no effect, 100 complete control, read-out: Plant response rating, Ragweed) | pest or weed control at 31 g/ha ([7]; Postemergence, 31 g ai/ha, visual injury after approx. 10 d, 0 to 100 scale, 0 no effect, 100 complete control, read-out: Plant response rating, Galium) | pest or weed control at 125 g/ha ([8]; 125 g ai/ha, postemergence, visual injury vs untreated controls after approx. 10 d, 0 = no effect, 100 = complete control, read-out: Ryegrass, Italian plant response rating (0 to 100 scale)) | pest or weed control at 31 g/ha ([8]; Postemergence, 31 g ai/ha, visual injury after approx. 10 d, 0 to 100 scale, 0 no effect, 100 complete control, read-out: Plant response rating, Ryegrass, Italian) | plant injury at 125 g/ha ([9]; 125 g ai/ha, postemergence, visual injury vs untreated controls after approx. 10 d, 0 = no effect, 100 = complete control, read-out: Wheat plant response rating (0 to 100 scale)) | plant injury at 31 g/ha ([9]; Postemergence, 31 g ai/ha, visual injury after approx. 10 d, 0 to 100 scale, 0 no effect, 100 complete control, read-out: Plant response rating, Wheat) | pest or weed control at 31 g/ha (Kochia (Kochia scoparia) [10]; 31 g ai/ha, Preemergence) | pest or weed control at 31 g/ha ([13]; 31 g ai/ha, Preemergence) | pest or weed control at 125 g/ha [13, 19] | pest or weed control at 31 g/ha ([14]; 31 g ai/ha, Preemergence) | pest or weed control at 125 g/ha [14, 19] | pest or weed control at 31 g/ha ([15]; 31 g ai/ha, Preemergence) | pest or weed control at 125 g/ha [15, 19] | pest or weed control at 250 g/ha (rice (Oryra sativa)) | pest or weed control at 250 g/ha [17]
70%: pest or weed control at 31 g/ha ([12]; 31 g ai/ha, Preemergence)
90%: pest or weed control at 125 g/ha [12, 19]
